Laboratory results as given in patent US20240262835A1, “PRMT5 INHIBITING COMPOUNDS AND USES THEREOF” (ANTENGENE DISCOVERY LIMITED, priority 2023, published 2024).

How the values were obtained:
[1] = tested on: cryopreserved hepatocytes; settings: human
Method: 1) 10 mM test compounds were provided.
(§1) 2) 30 mM positive control stock solutions: Dissolved accurate amount of positive control compounds in dimethyl sulfoxide (DMSO).
(§2) 3) 1000× Stock Solution: Diluted 10 mM test compounds and 30 mM positive control compounds to 1 mM and 3 mM with DMSO in 96-well plates.
(§3) 4) 100× Dosing Solution: Diluted 1 mM test compounds and 3 mM positive control compounds to 100 μM and 300 μM dosing solutions with ACN.
(§4) 5) Preparation of 0.5×10^6/mL cells suspension: cryopreserved cells were thawed, isolated and suspended in Incubation Medium, then diluted with pre-warmed Incubation Medium to 0.5×10^6 cells/mL.
(§5) 6) Add 198 μL of pre-warmed cell suspensions in 96-well plates.
(§6) 7) Preparation of Quenching Plate: Transfer 125 μL of stop solution in a set of pre-labeled 96-well plates.
(§7) 8) Spike 2 μL dosing solution to each well of 96-well plates in duplicate.
(§8) 9) For TO Samples, mix to achieve a homogenous suspension for about 1 min, then immediately transfer 25 μL of each sample into well containing 125 μL of ice-cold stop solution followed by mixing.
(§9) 10) Incubate all plates at 37° C. in a 95% humidified incubator at 5% CO2 to start the reactions with constant shaking.
(§10) 11) At 15, 30, 60 and 90 min, mix samples and then transfer 25 μL of each sample at each time point to well containing 125 μL of ice-cold stop solution followed by mixing.
(§11) 12) Medium Control (MC) sample plates (labeled as TO-MC and T90-MC) are prepared in the same way as cell incubation except that medium was used instead of cell suspension.
(§12) 13) At each corresponding time point, stop the reactions by removing the plates from incubator and mixing with 125 μL of ice-cold stop solution.
(§13) 14) Vortex the plates immediately on a plate shaker at 600 rpm for 10 minutes. Then, centrifuge all sample plates at 3220×g for 20 min at 4° C.
(§14) 15) After centrifugation, 80 μL/well of supernatant in the sample plates are transferred to another set of pre-labeled 96-well plates which containing 240 μL of ultra pure water according to the plate map.
(§15) 16) Analytical plates are sealed and store at 4° C. until LC-MS/MS analysis.
(§16) The remaining percents of test articles after incubation were calculated by the follow equations:
(§17) Use the following equation of first order kinetics to calculate T1/2 and CLint:

[2] = tested on: cryopreserved hepatocytes; settings: rat
Method: 1) 10 mM test compounds were provided.
as §1, §2, §3, §4, §5, §6, §7, §8, §9, §10, §11, §12, §13, §14, §15, §16, §17

[3] = tested on: cryopreserved hepatocytes; settings: mouse
Method: 1) 10 mM test compounds were provided.
as §1, §2, §3, §4, §5, §6, §7, §8, §9, §10, §11, §12, §13, §14, §15, §16, §17

[4] = tested on: cryopreserved hepatocytes; settings: dog
Method: 1) 10 mM test compounds were provided.
as §1, §2, §3, §4, §5, §6, §7, §8, §9, §10, §11, §12, §13, §14, §15, §16, §17

[5] = tested on: cryopreserved hepatocytes; settings: cynomolgus monkey
Method: 1) 10 mM test compounds were provided.
as §1, §2, §3, §4, §5, §6, §7, §8, §9, §10, §11, §12, §13, §14, §15, §16, §17

in vitro [6] = settings: human, hepatocytes
Method: 1) 10 mM test compounds were provided.
as §1, §2, §3, §4, §5, §6, §7, §8, §9, §10, §11, §12, §13, §14, §15, §16, §17

in vitro [7] = settings: rat, hepatocytes
Method: 1) 10 mM test compounds were provided.
as §1, §2, §3, §4, §5, §6, §7, §8, §9, §10, §11, §12, §13, §14, §15, §16, §17

in vitro [8] = settings: mouse, hepatocytes
Method: 1) 10 mM test compounds were provided.
as §1, §2, §3, §4, §5, §6, §7, §8, §9, §10, §11, §12, §13, §14, §15, §16, §17

in vitro [9] = settings: dog, hepatocytes
Method: 1) 10 mM test compounds were provided.
as §1, §2, §3, §4, §5, §6, §7, §8, §9, §10, §11, §12, §13, §14, §15, §16, §17

in vitro [10] = settings: cynomolgus monkey, hepatocytes
Method: 1) 10 mM test compounds were provided.
as §1, §2, §3, §4, §5, §6, §7, §8, §9, §10, §11, §12, §13, §14, §15, §16, §17

[11] = rat liver microsome, scaled to liver
in vitro [12] = settings: rat, microsomes
[13] = Liver microsome metabolic stability (LMS) assay, dog; settings: dog, microsomes
[14] = Liver microsome metabolic stability (LMS) assay, human
[15] = Liver microsome metabolic stability (LMS) assay, cynomolgus monkey

CCOc1ccc2ccc(=O)oc2c1 [Ref. 1, 7-Ethoxycoumarin]
CLint (hep) H [1]: 72.1 μL/min/10^6
CLint (hep) R [2]: 39.2 μL/min/10^6
CLint (hep) M [3]: 647.9 μL/min/10^6
CLint (hep) D [4]: 521.1 μL/min/10^6
CLint (hep) C [5]: 154.0 μL/min/10^6
CLint scaled at 3 μM (in vitro [6]): 201 mL/min/kg
half-life at 3 μM (in vitro [6]): 19.2 min
CLint scaled at 3 μM (in vitro [7]): 184 mL/min/kg
half-life at 3 μM (in vitro [7]): 35.3 min
CLint scaled at 3 μM (in vitro [8]): 7700 mL/min/kg
half-life at 3 μM (in vitro [8]): 2.1 min
CLint scaled at 3 μM (in vitro [9]): 3580 mL/min/kg
CLint scaled at 3 μM (in vitro [10]): 554 mL/min/kg
half-life at 3 μM (in vitro [10]): 9 min

C[C@]12CC[C@H]3[C@@H](CCC4=CC(=O)CC[C@@]43C)[C@@H]1CC[C@@H]2O [Ref. 4, Testosterone, reference compound]
CLint (liver) R [11]: 3782.4 mL/min/kg
half-life (in vitro [12]): 0.7 min
CLint scaled at 1 μM [13]: 58.7 mL/min/kg
half-life at 1 μM [13]: 34 min
microsomal CLint at 1 μM [13]: 40.8 µL/min/mg
CLint (mic) H ([14]; human liver microsome): 79.0 µL/min/mg
half-life at 1 μM ([14]; human, microsomes): 17.6 min
CLint (mic) C ([15]; cynomolgus monkey liver microsome): 152.3 µL/min/mg
CLint scaled at 1 μM ([15]; cynomolgus monkey, microsomes): 206 mL/min/kg
half-life at 1 μM ([15]; cynomolgus monkey, microsomes): 9.1 min
